Reference: patent US20240294545A1 (CSPC Zhongqi Pharmaceutical Technology (Shijiazhuang) Co., …, priority 2020, published 2024)

The compounds below were run against ATM (Homo sapiens (Human), UniProt Q13315) (assay: Caliper mobility shift assay for ATM). Details: read-out: IC50 of inhibitory activity on ATM kinase.
Format: biochemical
Experimental: 1.2 Determination of the Inhibitory Activities of Compounds on ATM: Caliper Mobility Shift Assay for ATM
To a 96-well plate, 98 μL of DMSO and 2 μL of the 10 mM stock solution were added and mixed evenly so that the concentration of the solution was 200 μM.
Based on the inhibitory rates of the compound at different concentrations, IC50 was calculated according to the formula: Y=Bottom+(Top−Bottom)/(1+(IC50/X)^HillSlope).

Chain of ATM (Q13315 whole entry): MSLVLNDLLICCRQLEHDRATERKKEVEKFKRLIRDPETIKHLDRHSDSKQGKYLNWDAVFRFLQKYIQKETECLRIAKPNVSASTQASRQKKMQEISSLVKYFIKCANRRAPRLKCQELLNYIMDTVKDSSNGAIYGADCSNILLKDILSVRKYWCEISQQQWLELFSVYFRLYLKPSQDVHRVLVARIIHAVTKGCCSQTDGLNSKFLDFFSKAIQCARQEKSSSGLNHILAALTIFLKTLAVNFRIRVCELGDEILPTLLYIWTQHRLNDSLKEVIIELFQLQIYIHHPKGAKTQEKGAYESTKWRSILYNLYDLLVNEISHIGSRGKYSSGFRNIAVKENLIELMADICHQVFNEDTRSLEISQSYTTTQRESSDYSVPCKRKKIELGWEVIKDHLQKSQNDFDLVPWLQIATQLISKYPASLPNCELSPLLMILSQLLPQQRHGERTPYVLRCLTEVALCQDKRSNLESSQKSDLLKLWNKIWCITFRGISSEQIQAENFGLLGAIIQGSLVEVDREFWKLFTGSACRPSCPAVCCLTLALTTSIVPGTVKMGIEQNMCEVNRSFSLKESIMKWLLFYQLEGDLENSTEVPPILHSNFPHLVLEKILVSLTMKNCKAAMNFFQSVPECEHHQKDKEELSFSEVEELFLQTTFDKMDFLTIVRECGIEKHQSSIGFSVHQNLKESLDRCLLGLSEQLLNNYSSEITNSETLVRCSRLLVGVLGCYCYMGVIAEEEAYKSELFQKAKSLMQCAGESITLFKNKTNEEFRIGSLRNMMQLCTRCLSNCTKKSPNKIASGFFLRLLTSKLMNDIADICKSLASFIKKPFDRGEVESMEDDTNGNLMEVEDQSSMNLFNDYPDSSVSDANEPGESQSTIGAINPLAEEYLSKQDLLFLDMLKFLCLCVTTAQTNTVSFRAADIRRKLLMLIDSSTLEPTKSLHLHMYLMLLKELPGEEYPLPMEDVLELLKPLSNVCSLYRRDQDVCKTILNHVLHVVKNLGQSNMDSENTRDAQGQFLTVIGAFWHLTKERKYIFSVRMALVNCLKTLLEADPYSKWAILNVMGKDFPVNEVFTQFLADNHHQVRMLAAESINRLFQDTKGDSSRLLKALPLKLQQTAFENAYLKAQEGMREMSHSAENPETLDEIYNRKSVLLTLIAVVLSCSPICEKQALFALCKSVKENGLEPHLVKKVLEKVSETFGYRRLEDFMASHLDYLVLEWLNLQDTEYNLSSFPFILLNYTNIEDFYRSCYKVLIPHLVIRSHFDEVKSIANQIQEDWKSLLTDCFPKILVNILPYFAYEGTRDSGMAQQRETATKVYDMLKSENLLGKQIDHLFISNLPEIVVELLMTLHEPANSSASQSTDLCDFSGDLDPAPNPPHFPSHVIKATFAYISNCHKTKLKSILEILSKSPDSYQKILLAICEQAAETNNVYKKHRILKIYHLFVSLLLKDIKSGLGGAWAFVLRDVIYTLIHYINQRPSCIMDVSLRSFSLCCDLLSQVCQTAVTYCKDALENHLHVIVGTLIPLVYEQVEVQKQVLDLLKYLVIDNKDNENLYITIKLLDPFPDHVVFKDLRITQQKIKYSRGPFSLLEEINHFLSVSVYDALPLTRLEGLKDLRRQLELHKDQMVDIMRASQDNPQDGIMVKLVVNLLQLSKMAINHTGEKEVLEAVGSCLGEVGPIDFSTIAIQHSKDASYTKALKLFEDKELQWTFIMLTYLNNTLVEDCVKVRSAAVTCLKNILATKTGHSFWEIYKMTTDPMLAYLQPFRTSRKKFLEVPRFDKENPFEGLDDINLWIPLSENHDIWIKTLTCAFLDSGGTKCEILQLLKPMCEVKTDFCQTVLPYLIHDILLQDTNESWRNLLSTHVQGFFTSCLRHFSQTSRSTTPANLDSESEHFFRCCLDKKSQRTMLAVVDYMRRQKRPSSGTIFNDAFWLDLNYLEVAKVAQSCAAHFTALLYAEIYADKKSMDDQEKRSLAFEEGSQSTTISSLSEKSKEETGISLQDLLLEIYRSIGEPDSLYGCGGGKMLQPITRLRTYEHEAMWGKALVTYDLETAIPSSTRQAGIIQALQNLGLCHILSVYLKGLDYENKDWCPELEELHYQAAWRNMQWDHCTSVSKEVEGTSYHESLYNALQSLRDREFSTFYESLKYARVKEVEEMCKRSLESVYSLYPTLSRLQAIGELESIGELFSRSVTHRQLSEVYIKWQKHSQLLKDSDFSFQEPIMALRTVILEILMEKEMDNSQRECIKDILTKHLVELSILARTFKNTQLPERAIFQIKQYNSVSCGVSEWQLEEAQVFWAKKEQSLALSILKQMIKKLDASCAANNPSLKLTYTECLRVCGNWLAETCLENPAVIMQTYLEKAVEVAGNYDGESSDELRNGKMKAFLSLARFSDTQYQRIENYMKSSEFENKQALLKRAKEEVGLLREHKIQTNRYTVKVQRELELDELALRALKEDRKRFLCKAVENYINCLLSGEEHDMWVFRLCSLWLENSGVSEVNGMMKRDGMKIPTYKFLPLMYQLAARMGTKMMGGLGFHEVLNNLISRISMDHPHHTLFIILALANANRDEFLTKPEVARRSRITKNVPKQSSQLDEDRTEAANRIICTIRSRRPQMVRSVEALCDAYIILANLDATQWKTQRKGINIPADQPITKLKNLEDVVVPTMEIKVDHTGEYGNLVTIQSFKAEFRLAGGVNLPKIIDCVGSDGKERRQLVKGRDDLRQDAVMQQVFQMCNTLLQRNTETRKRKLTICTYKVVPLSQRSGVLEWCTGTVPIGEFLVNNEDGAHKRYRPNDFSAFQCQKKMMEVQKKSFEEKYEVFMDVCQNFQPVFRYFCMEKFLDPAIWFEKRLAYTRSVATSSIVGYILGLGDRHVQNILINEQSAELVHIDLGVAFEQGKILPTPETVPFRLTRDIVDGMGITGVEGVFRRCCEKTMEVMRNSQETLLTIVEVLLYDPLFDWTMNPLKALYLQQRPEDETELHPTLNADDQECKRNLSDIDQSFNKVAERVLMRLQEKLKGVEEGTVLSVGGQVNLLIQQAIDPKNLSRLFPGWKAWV

SMILES	IC50
Cn1c(=O)n2c3c4c(c(-c5ccc(OCCCN6CCCCC6)nc5)c(F)cc4ncc31)OCCC2 [Compound A-154]	0.71 nM
C[C@H]1COc2c(-c3ccc(OCCCN4CCCCC4)nc3)c(F)cc3ncc4c(c23)n1c(=O)n4C [Example A-1, (S)-6-fluoro-2,10-dimethyl-7-(6-(3-(piperidin-1-yl)propoxy)pyridin-3-yl)-9,10-dihydro-8-oxa-2,4,10a-triazanaphtho[2,1,8-cde]azulen-1(2H)-one]	0.79 nM
C[C@@H]1COc2c(-c3ccc(OCCCN4CCCCC4)nc3)c(F)cc3ncc4c(c23)n1c(=O)n4C [Example A-4, (R)-6-fluoro-2,10-dimethyl-7-(6-(3-(piperidin-1-yl)propoxy)pyridin-3-yl)-9,10-dihydro-8-oxa-2,4,10a-triazanaphtho[2,1,8-cde]azulen-1(2H)-one]	0.9 nM
CC(C)C[C@H]1COc2c(-c3ccc(OCCCN4CCCCC4)nc3)c(F)cc3ncc4c(c23)n1c(=O)n4C [Example A-9, (S)-6-fluoro-10-isobutyl-2-methyl-7-(6-(3-(piperidin-1-yl)propoxy)pyridin-3-yl)-9,10-dihydro-8-oxa-2,4,10a-triazanaphtho[2,1,8-cde]azulen-1(2H)-one]	0.2 nM
Cn1c(=O)n2c3c4c(c(-c5ccc(OCCCN6CCCCC6)nc5)c(F)cc4ncc31)OCC21CC1 [Example A-11, 6-fluoro-2-methyl-7-(6-(3-(piperidin-1-yl)propoxy)pyridin-3-yl)-2,9-dihydro-1H-spiro[8-oxa-2,4,10a-triazanaphtho[2,1,8-cde]azulene-10,1-cyclopropan]-1-one]	0.54 nM
Cn1c(=O)n2c3c4c(c(-c5ccc(OCCCN6CCCCC6)nc5)c(F)cc4ncc31)OC[C@@H]2Cc1ccccc1 [Example A-13, (S)-10-benzyl-6-fluoro-2-methyl-7-(6-(3-(piperidin-1-yl)propoxy)pyridin-3-yl)-9,10-dihydro-8-oxa-2,4,10a-triazanaphtho[2,1,8-cde]azulen-1(2H)-one]	0.4 nM
Cn1c(=O)n2c3c4c(c(-c5ccc(OCCCN6CCCCC6)nc5)c(F)cc4ncc31)OC[C@H]2Cc1ccccc1 [Example A-14, (R)-10-benzyl-6-fluoro-2-methyl-7-(6-(3-(piperidin-1-yl)propoxy)pyridin-3-yl)-9,10-dihydro-8-oxa-2,4,10a-triazanaphtho[2,1,8-cde]azulen-1(2H)-one]	0.42 nM
CC[C@H]1COc2c(-c3ccc(OCCCN4CCCCC4)nc3)c(F)cc3ncc4c(c23)n1c(=O)n4C [Example A-23, (S)-10-ethyl-6-fluoro-2-methyl-7-(6-(3-(piperidin-1-yl)propoxy)pyridin-3-yl)-9,10-dihydro-8-oxa-2,4,10a-triazanaphtho[2,1,8-cde]azulen-1(2H)-one]	0.42 nM
Cn1c(=O)n2c3c4c(c(-c5ccc(OCCCN6CCCCC6)nc5)c(F)cc4ncc31)OCC2C1CC1 (stereo not shown) [Example A-27, 10-cyclopropyl-6-fluoro-2-methyl-7-(6-(3-(piperidin-1-yl)propoxy)pyridin-3-yl)-9,10-dihydro-8-oxa-2,4,10a-triazanaphtho[2,1,8-cde]azulen-1(2H)-one]	0.28 nM
Cn1c(=O)n2c3c4c(c(-c5ccc(OCCCN6CCCCC6)nc5)c(F)cc4ncc31)OCC21CCC1 [Example A-28, 6-fluoro-2-methyl-7-(6-(3-(piperidin-1-yl)propoxy)pyridin-3-yl)-2,9-dihydro-1H-spiro[8-oxa-2,4,10a-triazanaphtho[2,1,8-cde]azulene-10,1′-cyclobutan]-1-one]	0.28 nM
COc1cc2ncc3c4c2c(c1-c1cnn(C)c1)OCC(c1ccccn1)n4c(=O)n3C (stereo not shown) [Example A-30, 6-methoxy-2-methyl-7-(1-methyl-1H-pyrazol-4-yl)-10-(pyridin-2-yl)-9,10-dihydro-8-oxa-2,4,10a-triazanaphtho[2,1,8-cde]azulen-1(2H)-one]	0.27 nM
COc1cc2ncc3c4c2c(c1-c1ccc(OCCCN2CCCCC2)nc1)OC[C@@H](C)n4c(=O)n3C [Example A-32, (R)-6-methoxy-2,10-dimethyl-7-(6-(3-(piperidin-1-yl)propoxy)pyridin-3-yl)-9,10-dihydro-8-oxa-2,4,10a-triazanaphtho[2,1,8-cde]azulen-1(2H)-one]	0.94 nM
COCC1COc2c(-c3ccc(OCCCN4CCCCC4)nc3)c(F)cc3ncc4c(c23)n1c(=O)n4C (stereo not shown) [Example A-49, 6-fluoro-10-(methoxymethyl)-2-methyl-7-(6-(3-(piperidin-1-yl)propoxy)pyridin-3-yl)-9,10-dihydro-8-oxa-2,4,10a-triazanaphtho[2,1,8-cde]azulen-1(2H)-one]	0.86 nM
Cn1c(=O)n2c3c4c(c(-c5ccc(OCCCN6CCCCC6)nc5)ccc4ncc31)OCC2(C)C [Example A-67, 2,10,10-trimethyl-7-(6-(3-(piperidin-1-yl)propoxy)pyridin-3-yl)-9,10-dihydro-8-oxa-2,4,10a-triazanaphtho[2,1,8-cde]azulen-1(2H)-one]	0.26 nM
C[C@H]1COc2c(-c3ccc(N4CCC(N(C)C)CC4)nc3)c(F)cc3ncc4c(c23)n1c(=O)n4C [Example A-159, (S)-7-(6-(4-(dimethylamino)piperidin-1-yl)pyridin-3-yl)-6-fluoro-2,10-dimethyl-9,10-dihydro-8-oxa-2,4,10a-triazanaphtho[2,1,8-cde]azulen-1(2H)-one]	0.92 nM
Cn1c(=O)n2c3c4c(c(-c5ccc(OCCCN6CC[C@H](C#N)C6)nc5)c(F)cc4ncc31)OCC21CCC1 [Example A-160]	0.43 nM
Cn1c(=O)n2c3c4c(c(-c5ccc(OCCCN6CC[C@H](F)C6)nc5)c(F)cc4ncc31)OCC21CCC1 [Example A-161, (S)-6-fluoro-7-(6-(3-(3-fluoropyrrolidin-1-yl)propoxy)pyridin-3-yl)-2-methyl-2,9-dihydro-1H-spiro[8-oxa-2,4,10a-triazanaphtho[2,1,8-cde]azulene-10,1′-cyclobutan]-1-one]	0.32 nM
Cn1c(=O)n2c3c4c(c(-c5ccc(OCCCN6CCCC6)nc5)c(F)cc4ncc31)OCC21CCC1 [Example A-162, 6-fluoro-2-methyl-7-(6-(3-(pyrrolidin-1-yl)propoxy)pyridin-3-yl)-2,9-dihydro-1H-spiro[8-oxa-2,4,10a-triazanaphtho[2,1,8-cde]azulene-10,1′-cyclobutan]-1-one]	0.36 nM
C[C@H]1COc2c(-c3ccc(OCCCN4CCC5(CC4)COC5)nc3)c(F)cc3ncc4c(c23)n1c(=O)n4C [Example A-171, (S)-7-(6-(3-(2-oxa-7-azaspiro[3.5]nonan-7-yl)propoxy)pyridin-3-yl)-6-fluoro-2,10-dimethyl-9,10-dihydro-8-oxa-2,4,10a-triazanaphtho[2,1,8-cde]azulen-1(2H)-one]	0.42 nM
Cn1c(=O)n2c3c4c(c(-c5ccc(OCCCN6CCCCC6)nc5)ccc4ncc31)OCC21CCC1 [Example A-176, 2-methyl-7-(6-(3-(piperidin-1-yl)propoxy)pyridin-3-yl)-2,9-dihydro-1H-spiro[8-oxa-2,4,10a-triazanaphtho[2,1,8-cde]azulene-10,1′-cyclobutan]-1-one]	0.17 nM
C[C@H]1COc2c(-c3ccc(OCCCN(C)C)nc3)ccc3ncc4c(c23)n1c(=O)n4C [Example A-178, (S)-7-(6-(3-(dimethylamino)propoxy)pyridin-3-yl)-2,10-dimethyl-9,10-dihydro-8-oxa-2,4,10a-triazanaphtho[2,1,8-cde]azulen-1(2H)-one]	0.25 nM
CN(C)CCCOc1ccc(-c2ccc3ncc4c5c3c2OCC2(CC2)n5c(=O)n4C)cn1 [Example A-179, 7-(6-(3-(dimethylamino)propoxy)pyridin-3-yl)-2-methyl-2,9-dihydro-1H-spiro[8-oxa-2,4,10a-triazanaphtho[2,1,8-cde]azulene-10,1′-cyclopropan]-1-one]	0.37 nM
CN(C)CCCOc1ccc(-c2ccc3ncc4c5c3c2OCC(C)(C)n5c(=O)n4C)cn1 [Example A-180, 7-(6-(3-(dimethylamino)propoxy)pyridin-3-yl)-2,10,10-trimethyl-9,10-dihydro-8-oxa-2,4,10a-triazanaphtho[2,1,8-cde]azulen-1(2H)-one]	0.26 nM
C[C@@H]1COc2c(-c3ccc(OCCCN(C)C)nc3)ccc3ncc4c(c23)n1c(=O)n4C [Example A-181, (R)-7-(6-(3-(dimethylamino)propoxy)pyridin-3-yl)-2,10-dimethyl-9,10-dihydro-8-oxa-2,4,10a-triazanaphtho[2,1,8-cde]azulen-1(2H)-one]	0.72 nM
CN(C)CCCOc1ccc(-c2ccc3ncc4c5c3c2OCC2(CCC2)n5c(=O)n4C)cn1 [Example A-185, 7-(6-(3-(dimethylamino)propoxy)pyridin-3-yl)-2-methyl-2,9-dihydro-1H-spiro[8-oxa-2,4,10a-triazanaphtho[2,1,8-cde]azulene-10,1′-cyclobutan]-1-one]	0.25 nM
CC[C@H]1COc2c(-c3ccc(OCCCN4CCCCC4)nc3)ccc3ncc4c(c23)n1c(=O)n4C [Example A-186, (S)-10-ethyl-2-methyl-7-(6-(3-(piperidin-1-yl)propoxy)pyridin-3-yl)-9,10-dihydro-8-oxa-2,4,10a-triazanaphtho[2,1,8-cde]azulen-1(2H)-one]	0.38 nM
CC[C@@H]1COc2c(-c3ccc(OCCCN4CCCCC4)nc3)ccc3ncc4c(c23)n1c(=O)n4C [Example A-187, (R)-10-ethyl-2-methyl-7-(6-(3-(piperidin-1-yl)propoxy)pyridin-3-yl)-9,10-dihydro-8-oxa-2,4,10a-triazanaphtho[2,1,8-cde]azulen-1(2H)-one]	0.22 nM
CC[C@@H]1COc2c(-c3ccc(OCCCN(C)C)nc3)ccc3ncc4c(c23)n1c(=O)n4C [Example A-188, (R)-7-(6-(3-(dimethylamino)propoxy)pyridin-3-yl)-10-ethyl-2-methyl-9,10-dihydro-8-oxa-2,4,10a-triazanaphtho[2,1,8-cde]azulen-1(2H)-one]	0.4 nM
